Measured values taken from patent publication US6319501A, “Method of immunizing against hepatitis B virus” (Health Research, Inc., priority 1993, dated 2001).
Like-named read-outs stand apart in the source and are kept apart here. Ends that are not written are not given here.

Columns and labels:
[1] = test system: Human peripheral blood mononuclear cells (PBMC); assay: In vitro proliferation (3H-TdR incorporation) of human PBMC / T cells from rHBsAg vaccinees (FIG. 5); type: cell-based; conditions: humans immunized with recombinant HBsAg vaccine
Source text: Human peripheral blood mononuclear cells (PBMC) were obtained from volunteers who had received the full course of the rHBsAg vaccine (Merck Sharp & Dohme). Donor 1 .box-solid. Donor 2 z1 Donor 3 .quadrature. Donor 4 z2 For comparison average T cell-stimulatory response to rHBsAg subtype ad (146,478), parent peptide (96,930=100%) and media control (1,147) was examined at optimal concentrations for each antigen. Values expressed in parentheses are mean cpms of ^3 H-TdR incorporation of triplicate wells. Amino acid residues replacing amino acids in the parent sequence are shown at the bottom of the bars.
Sixty ml of blood was collected (in heparin containing syringes) from the antecubital vein of individuals who were vaccinated with a recombinant hepatitis B vaccine (RecombiVax HB; Merck, Sharp and Dohme). […]
Peripheral blood mononuclear cells were cultured in 96 well flat bottom plates at a density of 2.5×10^5 cells/100 μl per well in RPMI-1640 medium supplemented with 2mM glutamine, 100 units/ml penicillin, 100 μg/ml streptomycin, 50 μg/ml gentamycin and 10% human AB-positive serum. […] Proliferation, as measured by thymidine incorporation, was determined by liquid scintillation spectroscopy. Results are expressed as mean counts per minute (cpm) for triplicate cultures.

[2] = test system: Murine T cells primed to rHBsAg, subtype ad; assay: In vitro proliferation (3H-TdR incorporation) of T cells from Balb/c mice primed with rHBsAg subtype ad (FIG. 4); type: cell-based, mouse (Balb/c); conditions: mice primed with HBsAg ad
Source text: FIG. 4. depicts relative T cell-stimulatory activity of replacement set peptides expressed as a percentage of stimulation elicited by the parent peptide. Murine T cells were obtained by nylon wool column purification of Balb/c lymph node cells primed to rHBsAg, subtype ad (RecombiVax HB, Merck Sharp & Dohme). For comparison the T cells-stimulatory response to rHBsAg, subtype ad (97,024), rHBsAg subtype ayr (64,878), parent peptide (44,916=100%) and media control (1,873) was examined at optimal concentrations for each antigen. Values shown in parentheses are mean cpms corresponding to ^3 H-TdR incorporation measured in triplicate. Amino acid residues replacing amino acids in the parent sequence are shown at the bottom of the bars.
(§1) Balb/c mice were immunized in the hind foot pads, either with 0.5 μg of RecombiVax HB or with HBsAg subtype ayw (Scripps Laboratories), on day 0, 14 and 21. One week after the last injection, the animals were sacrificed and the popliteal lymph nodes were collected. The nodes were teased apart and the dispersed cells were then washed twice in RPMI-1640 medium without any serum supplement and once in RPMI medium containing 10% bovine calf serum. A cell count was made and the cell concentration was adjusted so that T cell enrichment was then done at 1×10^8 cells/0.6g of packed nylon wool column. […]

[3] = test system: Murine T cells primed with HBsAg, subtype ayr; assay: In vitro proliferation (3H-TdR incorporation) of T cells from Balb/c mice primed with HBsAg subtype ayr (FIG. 3); type: cell-based, mouse (Balb/c)
Source text: FIG. 3. depicts relative T cell-stimulatory activity of replacement set peptides expressed as a percentage of stimulation elicited by the parent peptide. Murine T cells were obtained by nylon wool column purification of Balb/c lymph node cells primed with HBsAg, subtype ayr (Scripps Laboratories, San Diego, Calif.). For comparison, the T cell-stimulatory response to rHBsAg, subtype ad(32,657), HBsAg subtype ayr (54,640), parent peptide (16,073=100%) and media control (330) were examined at optimal concentrations for each antigen. Values shown in parentheses are mean cpms corresponding to ^3 H-TdR incorporation measured in triplicate. Amino acid residues replacing amino acids in the parent sequence are shown at the bottom of the bars.
as §1

[4] = test system: antibodies recognizing the (139-147) segment of the S-protein (reaction with HBsAg); assay: Inhibition of attachment of antibodies recognizing S(139-147) to HBsAg-coated wells (comparative antigenicity of replacement set peptides); type: binding, rabbit
Method: FIG. 1. concerns the relative inhibitory activity of replacement set peptides on the reaction of antibodies recognizing the (139-147) segment of the S-protein with HBsAg. The concentration of each peptide at which the attachment of antibodies to solid phase HBsAg was reduced by 50% (C50) was determined. C50 of the parent peptide (sequence shown on top of the bars) was divided by C50 for each inhibitory peptide and the log10 of the ratio was plotted on the ordinate. Amino acid residues replacing amino acids in the parent sequence are shown on the top of each bar. The sequence numbers of residues being replaced in the parent sequence are shown on the bottom of the bar groups.
Wells of 96-well polystryene plates (Removawell, Immunolon II, Dynatech Laboratories, Chantilly, Va.) were coated with HBsAg subtype adw (200 μl; 100 μg/ml in 0.01 M Tris HCl pH 8.8) overnight at 20° C. The wells were then coated with a mixture of bovine serum albumin (BSA) and gelatin (10 and 2.5 mg/ml, respectively) in 0.14 M NaCl, 0.01 M Tris, 0.02% NaN3 (TS). […] The diluted antiserum, without added peptides, and normal rabbit serum served as positive and negative controls, respectively. Aliquots of the diluted rabbit sera with or without the peptides (200 μl) were added to the HBsAg-coated wells. After overnight incubation at 25° C., the plates were washed with 200 μl of TS and ^125 I-labeled anti-rabbit IgG (Kirkegaard & Perry Laboratories, Inc., Gaithersburg, Md.; 200,000 cpm diluted 1:1 with TSBG) were added to the wells. After incubation for 2 hours at 37° C., the wells were washed with TS and counted for radioactivity. Radioactivity, corrected for counts corresponding to diluted normal rabbit serum, was plotted against the log10 of the concentration of the respective peptides. […]

native HBsAg = conditions: after polymerization with glutaraldehyde; cited from earlier work
anti-HBs = conditions: cited from earlier work
[5] = test system: T-helper (Th) lymphocytes; conditions: mice immunized with HBsAg; linear and cyclic forms; cited from earlier work
[6] = test system: T-helper (Th) lymphocytes; conditions: humans immunized with HBsAg; linear and cyclic forms; cited from earlier work

| Substance | T-cell proliferative response / tolerance of replacement (in words) [2] | T-cell proliferative response / tolerance of replacement (in words) [3] | inhibition of attachment of anti-HBs to HBsAg-coated wells, preliminary results (in words) [4] | other results |
| --- | --- | --- | --- | --- |
| CTKPSDGNC | most tolerated | much more effective in eliciting proliferation of T-cells from mice immunized with HBsAg ayr in comparison with the ad-specific peptide | inhibited the attachment of anti-HBs to HBsAg-coated wells | T-cell proliferative response / tolerance of replacement (in words) [1]: responded virtually equally; IC50 ([4]; HBsAg-coated wells, rabbit antiserum to S(135-155) diluted 150-fold, read-out: concentration of peptide at which a 50% inhibition of anti-HBs attachment occurred (C50)): 56 nM |
| CTKPTDGNC [S(139-147) peptide with threonine at position 143, corresponding to S-protein subtype ad] | much more effective in eliciting proliferation of T-cells from mice immunized with HBsAg ad in comparison with the ay specific peptide | most favored replacement | inhibited the attachment of anti-HBs to HBsAg-coated wells |  |
| cyclic peptide corresponding to the sequence S(139-147): cyclic peptide S(139-147) from the S-protein subtype adw with a disulfide bond between residues (139-147) |  |  |  | antibodies elicited (in words) (native HBsAg): elicited antibodies reactive with native HBsAg; binding / affinity to anti-HBs (in words) (anti-HBs): affinity similar to that determined for the reaction between native HBsAg and anti-HBs |
| peptide S(139-147): peptide S(139-147) in both linear and cyclic forms (LYLPAGGSS; also: linear and cyclic forms; UniProt P03141 139-147, looked up, fragment) |  |  |  | proliferation of T-helper lymphocytes (in words) [5]: elicited the proliferation of T-helper (Th) lymphocytes; proliferation of T-helper lymphocytes (in words) [6]: elicited the proliferation of T-helper (Th) lymphocytes |
